Data on 9 compounds can be found in US6552077B2, “Albumin-binding compounds that prevent nonenzymatic glycation and that may be used for treatment of glycation-related pathologies” (Exocell, Inc., priority 1996, dated 2003).

The target of data set [1] is T1, Human albumin (Homo sapiens, UniProt P02768). Nature of the data set: Anti-glycation activity of 2-(phenylamino)phenylacetic acids (glycated albumin ELISA). The class given is biochemical. As to conditions: for IC50: human albumin 10 mg/ml, 0-50 mM glucose, 48-144 hours, 37° C., read-out: Glycation Inhibition IC50; for Antiglycation IC50 versus COX Inhibition IC50 (ratio): ratio of glycation IC50 to cyclo-oxygenase IC50. The protocol:
After dialysis to remove free glucose and compound, the amount of glycated albumin formed was determined by enzyme-linked immunosorbent assay using the monoclonal antibodies known to specifically react with Amadori-glucose adducts in glycated albumin and to be unreactive with the nonglycated protein. The presence of glucose in the incubations promotes the nonenzymatic glycation of albumin, and the performance of paired incubations allows comparison of the amount of glycated albumin formed under control (0 glucose), stimulated (25-50 mM glucose), and inhibited (compound plus glucose) conditions.
Background: In an ELISA, binding on a coated surface is turned into a signal by an enzyme label.

In the next data set the target is T2, cyclo-oxygenase (Bos taurus, UniProt O62664).
T2 construct: from tissue; host or cells: bovine seminal vesicles (cellular homogenate)
T2 sequence (O62664 25-600): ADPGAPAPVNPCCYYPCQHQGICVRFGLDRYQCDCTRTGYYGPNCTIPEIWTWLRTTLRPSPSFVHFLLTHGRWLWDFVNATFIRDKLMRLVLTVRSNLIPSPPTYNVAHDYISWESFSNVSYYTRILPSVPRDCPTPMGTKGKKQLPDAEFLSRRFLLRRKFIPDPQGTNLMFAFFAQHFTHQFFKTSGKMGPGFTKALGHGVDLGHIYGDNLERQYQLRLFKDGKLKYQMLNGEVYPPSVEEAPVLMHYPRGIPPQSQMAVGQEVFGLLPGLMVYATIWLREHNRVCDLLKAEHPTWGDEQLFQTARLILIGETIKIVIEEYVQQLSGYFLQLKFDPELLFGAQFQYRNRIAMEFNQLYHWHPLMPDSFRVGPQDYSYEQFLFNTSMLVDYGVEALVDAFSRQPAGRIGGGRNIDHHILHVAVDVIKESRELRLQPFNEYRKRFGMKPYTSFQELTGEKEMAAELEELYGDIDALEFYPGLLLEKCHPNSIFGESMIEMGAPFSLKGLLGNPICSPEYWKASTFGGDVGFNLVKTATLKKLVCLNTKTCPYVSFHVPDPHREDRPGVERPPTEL
Nature of the data set: Cyclo-oxygenase inhibition, conversion of arachidonic acid to prostaglandin E2 in bovine seminal vesicle homogenates. The class given is biochemical. As to conditions: arachidonic acid to prostaglandin E2, 1-30 minutes, read-out: COX Inhibition IC50. Here is the method: Cellular homogenates of bovine seminal vesicles were incubated with arachidonic acid and the production of prostaglandins was monitored.

The target in another data set is T3, glycated albumin (Mus musculus, UniProt P07724).
T3 construct: from tissue; host or cells: mouse plasma (in vivo dosing)
T3 sequence (P07724 25-608): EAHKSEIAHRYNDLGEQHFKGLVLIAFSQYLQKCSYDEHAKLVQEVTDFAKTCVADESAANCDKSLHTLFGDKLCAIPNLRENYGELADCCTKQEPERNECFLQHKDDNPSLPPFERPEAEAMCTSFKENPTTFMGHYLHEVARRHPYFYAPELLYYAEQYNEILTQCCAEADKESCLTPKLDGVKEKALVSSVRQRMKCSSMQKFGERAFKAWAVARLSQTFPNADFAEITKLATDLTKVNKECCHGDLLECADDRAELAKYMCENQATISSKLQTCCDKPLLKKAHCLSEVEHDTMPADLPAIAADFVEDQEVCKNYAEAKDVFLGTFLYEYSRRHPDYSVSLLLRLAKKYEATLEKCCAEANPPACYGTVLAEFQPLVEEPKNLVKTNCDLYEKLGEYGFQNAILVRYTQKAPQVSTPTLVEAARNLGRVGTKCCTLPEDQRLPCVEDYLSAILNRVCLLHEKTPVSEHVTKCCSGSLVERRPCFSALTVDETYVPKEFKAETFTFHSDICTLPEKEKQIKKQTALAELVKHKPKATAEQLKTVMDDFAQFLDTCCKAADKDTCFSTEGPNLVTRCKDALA
Nature of the data set: Prevention of albumin glycation in vivo, plasma glycated albumin by ELISA. The conditions noted are these: mice; for Glycated Albumin, Percent change: post vs pre-treatment; for Glycated Albumin, Post-treatment: four hours after last dosing; for Glycated Albumin, Pre-treatment: before treatment. The source says: Blood was taken before the initiation of treatment and four hours after the last dosing at the conclusion of the treatment.

In data set [2] the target is T1, Human albumin. Nature of the data set: Prevention of albumin glycation at physiologically significant sites (ELISA with anti-glycated albumin monoclonal antibody). The class given is biochemical. As to conditions: for IC50: human albumin 10 mg/ml, 40 mM glucose, 4 days, compound 1-1000 μM. Here is the method: The performance of paired incubations allowed comparison of the amount of glycated albumin formed under control (0 mM glucose), stimulated (40 mM glucose) and inhibited (test compound plus glucose) conditions.

The test system of the next data set is Mice. Kind of data set: Urine protein excretion after 8 weeks of treatment. The class given is in vivo. The protocol:
Mice were treated for 8 weeks with 10 mg/kg/day of 2-(3-chlorophenylamino) phenylacetic acid in divided doses. Urine samples were obtained at the initiation and termination of treatment for examination of protein excretion, which measures vascular dysfunction that is associated with glycation-related pathology As shown below, the reduction in glycated albumin was associated with a reduction in urine protein excretion.

Setting [3] is: 5 mg/kg/day intraperitoneal for 5 days.
The mark [4] stands for this setting: 5 mg/kg/day intraperitoneal in divided doses for 5 days.
[5] abbreviates: 10 mg/kg/day intraperitoneal for 5 days.
Setting [6] is: 10 mg/kg/day intraperitoneal in divided doses for 5 days.

Where a name gives a salt, the structure may show the parent alone.

T1 sequence (P02768 25-609): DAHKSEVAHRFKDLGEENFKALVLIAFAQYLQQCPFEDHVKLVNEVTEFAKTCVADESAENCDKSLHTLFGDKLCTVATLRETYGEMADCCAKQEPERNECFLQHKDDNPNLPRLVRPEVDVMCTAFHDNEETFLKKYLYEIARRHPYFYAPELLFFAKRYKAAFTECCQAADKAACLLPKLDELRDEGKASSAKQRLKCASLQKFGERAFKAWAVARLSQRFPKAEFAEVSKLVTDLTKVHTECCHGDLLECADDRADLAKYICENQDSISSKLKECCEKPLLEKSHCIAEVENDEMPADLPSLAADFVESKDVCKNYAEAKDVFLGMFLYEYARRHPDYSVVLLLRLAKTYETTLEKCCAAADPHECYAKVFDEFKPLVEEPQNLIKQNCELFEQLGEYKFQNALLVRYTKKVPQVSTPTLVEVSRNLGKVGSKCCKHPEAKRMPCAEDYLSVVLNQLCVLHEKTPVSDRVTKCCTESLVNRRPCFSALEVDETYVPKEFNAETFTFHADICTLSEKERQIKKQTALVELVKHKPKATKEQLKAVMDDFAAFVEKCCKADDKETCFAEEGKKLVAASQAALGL

As usually defined, the IC50 is the concentration needed to halve the response being measured. Take `O=C(O)Cc1ccccc1Nc1ccccc1Cl` [Example 4, 2-[(2-chlorophenyl)amino]phenylacetic acid]: the IC50 was determined as 10 µM at Human albumin [1] and 42 µM at cyclo-oxygenase. Besides, the “Antiglycation IC50 versus COX Inhibition IC50 (ratio)” value at Human albumin [1] is listed as 0.24. Also, the “Glycated Albumin, Percent change” value on glycated albumin (setting [3]) is on record as −32.5%; at glycated albumin (setting [5]), −47.7%. For the same compound, the “Glycated Albumin, Post-treatment” value on glycated albumin (setting [4]) is 500 µg/mL; at glycated albumin (setting [6]), 426 µg/mL. Further, the “Glycated Albumin, Pre-treatment” value came out at 741 µg/mL on glycated albumin (5 mg/kg/day group) and 815 µg/mL on glycated albumin (10 mg/kg/day group).
`Cc1cccc(C)c1Nc1ccccc1CC(=O)O` [Example 13, 2-[(2,6-dimethylphenyl)amino]phenylacetic Acid]: the IC50 at Human albumin [1] came to 112 µM; on cyclo-oxygenase, 6 µM. Moreover, the “Antiglycation IC50 versus COX Inhibition IC50 (ratio)” value on Human albumin [1] came to 19.0.
`CC1=C(CC(=O)O)c2cc(F)ccc2/C1=C\c1ccc([S+](C)[O-])cc1` (stereo not drawn) [[Z]-5-fluoro-2-methyl-1 [p-(methylsulfinyl)phenyl] (methylene-1H-indene-3-acetic acid, reference compound] returned a half-inhibitory concentration (IC50) on Human albumin [2] of 22000 µM.
Regarding `O=C(O)Cc1ccccc1Nc1ccc(Cl)cc1` [Example 6, 2-[(4-chlorophenyl)amino]phenylacetic acid], the IC50 at Human albumin [1] is 11 µM; on cyclo-oxygenase, 98 µM. At Human albumin [1], the “Antiglycation IC50 versus COX Inhibition IC50 (ratio)” value is recorded as 0.11.
Consider `O=C(O)Cc1ccccc1Nc1cccc(Cl)c1` [Example 5, 2-[(3-chlorophenyl)amino]phenylacetic acid], for which the IC50 on Human albumin [1] worked out at 50 µM; on cyclo-oxygenase, 600 µM; on Human albumin [2], 15 µM. In addition, the “Antiglycation IC50 versus COX Inhibition IC50 (ratio)” value on Human albumin [1] is given as 0.08. Also, the “Urine protein, Termination” value in the data set on Mice (after 8 weeks of 10 mg/kg/day in divided doses) amounted to 2.7 μg/24 hrs. For the same compound, in the data set with Mice (at initiation of treatment (baseline)), the “Urine protein, Initiation” value is reported as 7.6 μg/24 hrs. Moreover, the results for the “Glycated Albumin, Percent change” value on glycated albumin (setting [3]) and at glycated albumin (setting [5]) were −18.4% and −45.6%, respectively. For the same compound, the “Glycated Albumin, Post-treatment” value is 697 µg/mL at glycated albumin (setting [4]) and 352 µg/mL on glycated albumin (setting [6]). Moreover, the “Glycated Albumin, Pre-treatment” value on glycated albumin (5 mg/kg/day group) stood at 854 µg/mL; on glycated albumin (10 mg/kg/day group), 647 µg/mL. Also, at Human albumin [2] (comparison among the compounds of Table 1), the “ability to prevent glycation of the physiologically important sites” value is “greatest ability to prevent glycation”.
On to `O=C(O)Cc1ccccc1Nc1ccc(Cl)cc1Cl` [Example 8, 2-[(2,4-dichlorophenyl)amino]phenylacetic acid], for which, at Human albumin [1], the IC50 came to 63 µM and the “Antiglycation IC50 versus COX Inhibition IC50 (ratio)” value stood at 0.90. Also, the IC50 at cyclo-oxygenase is 71 µM.
As to `O=C(O)Cc1ccccc1Nc1ccc(Cl)c(Cl)c1` [Example 11, 2-[(3,4-dichlorophenyl)amino]phenylacetic acid], the IC50 came to 2.5 µM at Human albumin [1] and 141 µM at cyclo-oxygenase. For the same compound, the “Antiglycation IC50 versus COX Inhibition IC50 (ratio)” value on Human albumin [1] was found to be 0.02.
In the same order, the values of `O=C(O)Cc1ccccc1Nc1ccccc1` [Example 3, 2-[(phenyl)amino]phenylacetic acid] are 155 µM, 288 µM and 0.54.
As a reminder, the melting point is the temperature of the solid-liquid transition. Regarding `O=C(O)Cc1ccccc1Nc1cccc(Cl)c1` (as salt: salt) [Example 5, 2-[(3-chlorophenyl)amino]phenylacetic acid], the melting point lay within 102 to 103 °C.
